Consider six molecules from patent US10300104B2, “Multi-arm linker for treating rejection reaction in transplantation” (Immunwork Inc., priority 2015, dated 2019).

For assay [1], the system named is mTOR/p70S6K signaling pathway. Kind of assay: Western blot analysis of mTOR/p70S6K signaling pathway in Jurkat T cells. Format: cell-based, human. Particulars: 10 ng/ml IL2, 100 nM, 24 hours, FIG. 20A. As to the method: To examine the biological activities of these compounds, western blot analysis of mTOR/p70S6K signaling pathway and T-cell proliferation assay were performed with human Jurkat T cells. T-cell viability and proliferation were assessed using alamarBlue® cell viability reagent (Invitrogen).
For the western blot analysis of mTOR/p70S6K signaling pathway, briefly, Jurkat T cell were seeded into 6-cm cell culture dish in RPM11640 medium containing 10% fetal bovine serum.
Insoluble material was collected by centrifugation at 14,000×g for 20 minutes at 4° C. The cell lysate samples were separated on 10% SDS-PAGE gels and transferred to a PVDF membrane (Millipore). The membrane blots were blocked in PBS containing 5% BSA for 1 hour at room temperature, and incubated with primary antibodies, anti-phospho-p70S6K antibody (Cell Signaling Technology, Danvers, USA) and anti-p70S6K antibody (Cell Signaling Technology), overnight at 4° C. […] Then the membranes were washed three times with TBST, and immunoreacted bands were detected with ECL™ western blotting detection reagents (Millipore) and exposed on Fujifilm (Tokyo, Japan). Relative quantification of ECL signals on X-ray films were analyzed by using Image J (NIH, Bethesda, Md., USA).

The subject of assay [2] is scFv specific for CTLA-4. Kind of assay: Western blot of recombinant CTLA-4 with scFv specific for CTLA-4. The class given is binding. The conditions noted are these: scFv specific for CTLA-4 1 μg/ml; FIG. 14C. The procedure:
Recombinant CTLA-4 protein was analyzed and detected using western blotting. Briefly, 50 μl of the purified CTLA-4 protein was electrophoresed on the 12% SDS-PAGE gel (lane 2) and electroblotted over to a PDVF membrane. The protein (CTLA-4)-IgG1Fc-(scFv α HLA-A1) was used as a positive control (lane 1). After blocking with 5% BSA in TBST at room temperature for 1 hour, the diluted scFv specific for CTLA-4 (1 μg/ml) was added and incubated with the membrane overnight at 4° C. with gentle shaking. The membrane was rinsed and washed 3 times with TBST. The diluted HRP-conjugated protein L (1:5000) was added and incubated with the membrane at room temperature for 1 hour, and the rinse and wash cycle was repeated with TBST for 3 times. The membrane was then incubated with HRP substrate solution for 20 minutes before being exposed to the photographic film.
Background: Immunoblotting shows a protein as a band on a membrane.

Assay [3] deals with T1, PD1-IgG1.Fc (Homo sapiens, UniProt Q15116).
T1 construct: made in house; host or cells: Expi293F
T1 sequence (Q15116 with tags, fused parts or gaps): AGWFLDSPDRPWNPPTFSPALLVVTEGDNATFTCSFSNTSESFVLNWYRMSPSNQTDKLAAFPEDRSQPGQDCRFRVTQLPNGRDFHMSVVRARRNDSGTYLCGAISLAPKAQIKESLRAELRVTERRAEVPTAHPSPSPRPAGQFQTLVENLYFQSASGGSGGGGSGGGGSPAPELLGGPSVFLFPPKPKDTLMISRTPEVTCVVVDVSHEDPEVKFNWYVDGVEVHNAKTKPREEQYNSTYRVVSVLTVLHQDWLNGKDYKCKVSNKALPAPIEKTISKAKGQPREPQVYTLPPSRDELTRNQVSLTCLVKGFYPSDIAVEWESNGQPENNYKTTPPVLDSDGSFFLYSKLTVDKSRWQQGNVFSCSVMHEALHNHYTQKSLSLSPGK
In words: ELISA of recombinant PD-L1 binding to PD1-IgG1.Fc. The conditions noted are these: plate coated with PD-L1 50 μg/ml; PD1-IgG1.Fc 50 μg/ml; FIG. 14D. As to the method:
Binding activity of recombinant PD-L1 protein was assayed with ELISA using a 96-well plate coated with recombinant PD-L1 protein in 50 μg/ml concentration, 100 μl per well. After the excess PD-L1 was washed off and the solid phase blocked, 100 μl per well of PD1-IgG1.Fc at 50 μg/ml was added. The bound PD1-IgG1.Fc was determined by HRP-conjugated goat anti-human IgG.Fc. 50 μl of TMB substrate was added for color development. The reaction was stopped by 50 μl of 1M HCl. Absorbance at 450 nm was measured with a plate reader. Each bar represents the mean OD450 value of duplicate samples.

In assay [4] the target is T2, recombinant HLA-A1 (Homo sapiens, UniProt P04439).
T2 construct: made in house; host or cells: Expi293F
In words: ELISA of tetrazine-conjugated scFv specific for human HLA-A1. Particulars: FIG. 17B. Format: binding. From the text:
The purity of tetrazine-conjugated scFv specific for human HLA-A1 was identified through Coomassie blue staining of 12% SDS-PAGE. FIGS. 17A and 17B show, respectively, the mass spectrometric and ELISA analysis of tetrazine-conjugated scFv specific for human HLA-A1, in which unmodified scFv specific for human HLA-A1 was used as a positive control.
(ELISA stands for enzyme-linked immunosorbent assay.)

Assay [5] concerns the target T3, human HLA-A2 (Homo sapiens, UniProt P04439).
T3 construct: made in house; host or cells: Expi293F
In words: Single colony ELISA of phage-displayed scFvs specific for human HLA-A2. The class given is binding. Particulars: HLA-A2 0.5 μg/100 μl per well; FIG. 16B. The procedure:
E. coli strain ER2738 infected with single-clonal phages each harboring a selected scFv gene in its phagemid was grown in the mid-log phase in 2YT broth (16 g/l tryptone, 10 g/l yeast extract, 5 g/l NaCl, pH 7.0) with 100 μg/ml ampicillin in deep well at 37° C. with shaking. After the broth reached an OD600 of 1.0, IPTG was added to a final concentration of 1 μg/ml. The plates were incubated at 37° C. overnight under rigorously shaking. Thereafter, the plates were centrifuged at 4,000 g for 15 minutes at 4° C.
For soluble scFv binding test, ELISA was carried out. Briefly, 96-well Maxisorp 96-well plate (Nunc) was coated with human HLA-A2 (0.5 μg/100 μl PBS per well) or two negative control antigens, human heat shock protein 70 (Hsp 70) and RSV-IgG1.Fc fusion protein (prepared by our laboratory), for 18 hours with shaking at 4° C. After being treated with 300 μl of blocking buffer for 1 hour, 100 μl of secreted scFv in the supernatant was mixed with 100 μl of blocking buffer and then added to the coated plate for another 1 hour. Goat anti-E-tag antibody (conjugated with HRP, 1:4000, Cat. No. AB19400, Abcam) was added to the plate for 1 hour. TMB substrate (50 μl per well) was added to the wells and the absorbance at 450 nm was measured after reactions were stopped by adding 1N HCl (50 μl per well).

Take `CO[C@H]1C[C@@H]2CC[C@@H](C)[C@@](O)(O2)C(=O)C(=O)N2CCCC[C@H]2C(=O)O[C@H]([C@H](C)C[C@@H]2CC[C@@H](OC(=O)CN)[C@H](OC)C2)CC(=O)[C@H](C)/C=C(\C)[C@@H](O)[C@@H](OC)C(=O)[C@H](C)C[C@H](C)/C=C/C=C/C=C/1C` [sirolimus-Gly, Sirolimus monoglycine]: in assay [1], the “mTOR/p70S6K signally pathway in the treated T cells, compared with unmodified sirolimus” value is given as “blocked” and the “phosphorylated level of p70S6K” value is “decreased”.

With `CO[C@H]1C[C@@H]2CC[C@@H](C)[C@@](O)(O2)C(=O)C(=O)N2CCCC[C@H]2C(=O)O[C@H]([C@H](C)C[C@@H]2CC[C@@H](OC(=O)CNC(=O)CN)[C@H](OC)C2)CC(=O)[C@H](C)/C=C(\C)[C@@H](O)[C@@H](OC)C(=O)[C@H](C)C[C@H](C)/C=C/C=C/C=C/1C` [sirolimus-diGly, sirolimus di-glycine], in assay [1], the “mTOR/p70S6K signally pathway in the treated T cells, compared with unmodified sirolimus” value is “blocked” and the “phosphorylated level of p70S6K” value is on record as “decreased”. Consider “recombinant human CTLA-4: recombinant human CTLA-4 (SEQ ID NO: 30) with GGGGSGGGGS linker and terminal cysteine”, for which the “binding by the scFv specific for CTLA-4 (western blot)” value in assay [2] is reported as “specifically bound”. “recombinant human PD-L1: recombinant human PD-L1 (SEQ ID NO: 31) with GGGGSGGGGS linker and terminal cysteine”: the “binding to recombinant PD1-IgG1.Fc (ELISA)” value in assay [3] is “specifically bound”.

B1: tetrazine-conjugated scFv specific for human HLA-A1: scFv specific for human HLA-A1 conjugated at C-terminal cysteine with Mal-PEG4-tetrazine (protein)
scFv: DIQMTQSPSTLSASVGDRVTITCRASQSISNWLAWYQQKPGKAPNLLIYKASSLESGVPSRFSGSGSGTEFTLTISSLQPDDFATYYCQQYHDYSVTFGAGTKVEIKRGGGGSGGGGSGGGGSEVQLLESGGGLVQPGGSQRLSCVASGVPFSNYAMNWVRQAPGKGLEWVSSISGGGDRTFYADSVKGRFTISRDNSKNTLYLQMNSLGAGDTAVYYCAKTYYDFWSGYSRHLNSWGQGSLVTVSSGGGGSGGGGSC
Take B1: the “binding to recombinant HLA-A1 (ELISA)” value in assay [4] is “bound”.

B2: 3E10: phage-displayed human scFv clone specific for human HLA-A2, SEQ ID NO: 34 (protein)
scFv: DIQMTQSPSSLSASVGDRVTITCRASQDVFFFVAWYQQKPGKAPKLLIYGPPGLYSGVPSRFSGSGSGTDFTLTISSLQPEDFATYYCQQYFSFPITFGQGTKVEIKRGGGGSIEGRSGGGGSEVQLVESGGGLVQPGGSLRLSCAASGFTISNGGIHWVRQAPGKGLEWVASIWPSGGYTSYADSVKGRFTISADTSKNTAYLQMNSLRAEDTAVYYCARFGVNYHGIMDYWGQGTLVTVSS
modifications: phage-displayed scFv specific for HLA-A2, 3E10
Take B2: the “OD450 of binding to human HLA-A2” value in assay [5] is recorded as 1.3.
